Results from PubChem BioAssay AID1963984 (Molecular Pharmacology Branch, DTP, NCI, 2024).

System: 233499-124-R-J3-PDC spheroids with HUVEC/MSC, viability
Assay: Anticancer human tumor 233499-124-R-J3-PDC patient-derived colon adenocarcinoma cell line growth inhibition [PI3K]
Conditions: for IC50: curve of first compound; for viability, T/C: stronger effect = lower value; active = viability on the fitted dose curve at most 10% of control; inactive = the rest
In short: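 Spheroid viability read-out. Co-cultures contained the tumor line plus HUVEC and human MSCs. Each agent was paired with a PI3K inhibitor (inavolisib, alpelisib, duvelisib, copanlisib) across half-log dilutions starting at clinical Cmax, or at 10 microM when Cmax was unknown.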

[1] = second compound 0.0316 µM, first compound 0.0316 µM
[2] = second compound 0.0316 µM, first compound 0.1 µM
[3] = second compound 0.0316 µM, first compound 0.316 µM
[4] = second compound 0.0316 µM, first compound 1 µM
[5] = second compound 0.0316 µM, first compound 3.16 µM
[6] = second compound 0.0316 µM, first compound 10 µM
[7] = second compound 0.1 µM, first compound 0.0316 µM
[8] = second compound 0.1 µM, first compound 0.1 µM
[9] = second compound 0.1 µM, first compound 0.316 µM
[10] = second compound 0.1 µM, first compound 1 µM
[11] = second compound 0.1 µM, first compound 3.16 µM
[12] = second compound 0.1 µM, first compound 10 µM
[13] = second compound 0.316 µM, first compound 0.0316 µM
[14] = second compound 0.316 µM, first compound 0.1 µM
[15] = second compound 0.316 µM, first compound 0.316 µM
[16] = second compound 0.316 µM, first compound 1 µM
[17] = second compound 0.316 µM, first compound 3.16 µM
[18] = second compound 0.316 µM, first compound 10 µM
[19] = second compound 1 µM, first compound 0.0316 µM
[20] = second compound 1 µM, first compound 0.1 µM
[21] = second compound 1 µM, first compound 0.316 µM
[22] = second compound 1 µM, first compound 1 µM
[23] = second compound 1 µM, first compound 3.16 µM
[24] = second compound 1 µM, first compound 10 µM
[25] = second compound 3.16 µM, first compound 0.0316 µM
[26] = second compound 3.16 µM, first compound 0.1 µM
[27] = second compound 3.16 µM, first compound 0.316 µM
[28] = second compound 3.16 µM, first compound 1 µM
[29] = second compound 3.16 µM, first compound 3.16 µM
[30] = second compound 3.16 µM, first compound 10 µM
[31] = second compound 10 µM, first compound 0.0316 µM
[32] = second compound 10 µM, first compound 0.1 µM
[33] = second compound 10 µM, first compound 0.316 µM
[34] = second compound 10 µM, first compound 1 µM
[35] = second compound 10 µM, first compound 3.16 µM
[36] = second compound 10 µM, first compound 10 µM
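Note: spheroids exposed to agents for seven days before readout.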
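Throughout, for viability, T/C: percent viability relative to DMSO vehicle control taken as 100%.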

C=CC(=O)N1CCN(c2nc(=O)n(-c3c(C)ccnc3C(C)C)c3nc(-c4c(O)cccc4F)c(F)cc23)C(C)C1 (centres undefined) + CC(Nc1ncnc2nc[nH]c12)c1cc2cccc(Cl)c2c(=O)n1-c1ccccc1
inactive: viability, T/C [1] 103% | viability, T/C [2] 89.2% | viability, T/C [3] 81.2% | viability, T/C [4] 84.3% | viability, T/C [5] 85.8% | viability, T/C [6] 91.8% | viability, T/C [7] 91% | viability, T/C [8] 87.4% | viability, T/C [9] 92% | viability, T/C [10] 79.8% | viability, T/C [11] 88.1% | viability, T/C [12] 96.8% | viability, T/C [13] 81.1% | viability, T/C [14] 86.4% | viability, T/C [15] 87.4% | viability, T/C [16] 88.8% | viability, T/C [17] 90% | viability, T/C [18] 82.3% | viability, T/C [19] 96.6% | viability, T/C [20] 89.4% | viability, T/C [21] 87.8% | viability, T/C [22] 88.4% | viability, T/C [23] 92.9% | viability, T/C [24] 93.3% | viability, T/C [25] 91.3% | viability, T/C [26] 90.9% | viability, T/C [27] 78.3% | viability, T/C [28] 79.7% | viability, T/C [29] 71.6% | viability, T/C [30] 89% | viability, T/C [31] 80.9% | viability, T/C [32] 82.5% | viability, T/C [33] 81.8% | viability, T/C [34] 97.3% | viability, T/C [35] 69.4% | viability, T/C [36] 88.3%
> 10 µM: IC50 (second compound 0.0316 µM) | IC50 (second compound 0.1 µM) | IC50 (second compound 0.316 µM) | IC50 (second compound 1 µM) | IC50 (second compound 3.16 µM) | IC50 (second compound 10 µM)

CC(Cn1ccc(-c2ccc(C#N)c(Cl)c2)n1)NC(=O)c1cc(C(C)O)[nH]n1 (centres undefined) + CC(Nc1ncnc2nc[nH]c12)c1cc2cccc(Cl)c2c(=O)n1-c1ccccc1
inactive: viability, T/C [1] 100% | viability, T/C [2] 84.7% | viability, T/C [3] 93.2% | viability, T/C [4] 91.9% | viability, T/C [5] 109% | viability, T/C [6] 75% | viability, T/C [7] 98.2% | viability, T/C [8] 91.6% | viability, T/C [9] 81.5% | viability, T/C [10] 94.6% | viability, T/C [11] 68.8% | viability, T/C [12] 92.2% | viability, T/C [13] 87.3% | viability, T/C [14] 101% | viability, T/C [15] 73.3% | viability, T/C [16] 99.6% | viability, T/C [17] 100% | viability, T/C [18] 101% | viability, T/C [19] 96.2% | viability, T/C [20] 95.8% | viability, T/C [21] 81.4% | viability, T/C [22] 110% | viability, T/C [23] 92.9% | viability, T/C [24] 90.6% | viability, T/C [25] 91.6% | viability, T/C [26] 96.5% | viability, T/C [27] 78.1% | viability, T/C [28] 88.7% | viability, T/C [29] 78.3% | viability, T/C [30] 86.5% | viability, T/C [31] 86.1% | viability, T/C [32] 96.3% | viability, T/C [33] 83.2% | viability, T/C [34] 102% | viability, T/C [35] 75.5% | viability, T/C [36] 93.3%
> 10 µM: IC50 (second compound 0.0316 µM) | IC50 (second compound 0.1 µM) | IC50 (second compound 0.316 µM) | IC50 (second compound 1 µM) | IC50 (second compound 3.16 µM) | IC50 (second compound 10 µM)
